{"source": "patent US20050044578A1", "about": "“Rat highly sensitive to carcinogen” (priority 2001, published 2005)", "key": {"wild-type rats": {"test_system": "wild-type rats", "experiment": "Sensitivity to hepatocarcinogenesis by diethyl nitrosamine, GST-P-positive foci in liver, wild-type rats", "assay_type": "in vivo, rat", "conditions": "eight-week-old male, 200 mg/kg intraperitoneally, 20 weeks after the administration, per 1 cm^2", "method": "(§1) The livers taken from each of the above-mentioned rats were fixed with acetone and embedded in paraffine, sliced, and then GST-P, a precancerous hepatic lesion marker, was immunostained for visualization (FIG. 4, left). Further, the number and the area of positive foci per unit area in the GST-P-positive foci were measured with an image analyzer (IPAP, Olympus) (FIG. 4, right)."}, "transgenic rats": {"test_system": "transgenic rats", "experiment": "Sensitivity to hepatocarcinogenesis by diethyl nitrosamine, GST-P-positive foci in liver, transgenic rats (mutant connexin 32)", "assay_type": "in vivo, rat", "conditions": "200 mg/kg intraperitoneally", "method": "as §1"}, "[1]": {"conditions": "transgenic rats, eight-week-old male, 20 weeks after the administration, liver, per 1 cm^2"}}}
{"smiles": "CCN(CC)N=O", "note": "[diethyl nitrosamine]", "values": [{"measurement": "area of the GST-P-positive foci per unit area (1 cm^2)", "setting": "wild-type rats", "value": 0.2, "unit": "mm^2"}, {"measurement": "number of the GST-P-positive foci per unit area (1 cm^2)", "setting": "wild-type rats", "value": 11.1}, {"measurement": "sensitivity of the transgenic rats to the hepatocarcinogen", "setting": "transgenic rats; transgenic rats in comparison to wild-type rats, 20 weeks", "value": "extremely high sensitivity"}, {"measurement": "area of the GST-P-positive foci per unit area (1 cm^2)", "setting": "transgenic rats; [1]", "value": 3.32, "unit": "mm^2"}, {"measurement": "number of the GST-P-positive foci per unit area (1 cm^2)", "setting": "transgenic rats; [1]", "value": 79.8}]}
